{"source": "the supplement of paper PMC10307832", "assay_in_all_cases": "relative viability (nuclei count vs DMSO), 5 days (fraction); higher = more cells survive", "key": {"UMC-11": {"test_system": "UMC-11", "in_short": "(§1)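 Relative viability equals treated-well nuclei counts divided by vehicle-well nuclei counts. Counts came from 4× images of lung cancer cell lines grown in 1536-well plates for 5 days after pin-tool dosing on the day after seeding. Dosing used one drug alone or a fixed anchor-drug dose plus five library-drug doses (not always all listed) in √10 steps, and values are medians of duplicate plates.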"}, "SW 1573": {"test_system": "SW 1573", "in_short": "as §1"}, "NCI-H2009": {"test_system": "NCI-H2009", "in_short": "as §1"}, "A-427": {"test_system": "A-427", "in_short": "as §1"}, "NCI-H1793": {"test_system": "NCI-H1793", "in_short": "as §1"}, "NCI-H1944": {"test_system": "NCI-H1944", "in_short": "as §1"}, "NCI-H1915": {"test_system": "NCI-H1915", "in_short": "as §1"}, "EPLC-272H": {"test_system": "EPLC-272H", "in_short": "as §1"}, "NCI-H358": {"test_system": "NCI-H358", "in_short": "as §1"}, "ABC-1": {"test_system": "ABC-1", "in_short": "as §1"}, "NCI-H2023": {"test_system": "NCI-H2023", "in_short": "as §1"}, "HCC-15": {"test_system": "HCC-15", "in_short": "as §1"}, "RERF-LC-KJ": {"test_system": "RERF-LC-KJ", "in_short": "as §1"}, "NCI-H322M": {"test_system": "NCI-H322M", "in_short": "as §1"}, "NCI-H838": {"test_system": "NCI-H838", "in_short": "as §1"}, "NCI-H441": {"test_system": "NCI-H441", "in_short": "as §1"}, "NCI-H1734": {"test_system": "NCI-H1734", "in_short": "as §1"}, "NCI-H647": {"test_system": "NCI-H647", "in_short": "as §1"}, "LK-2": {"test_system": "LK-2", "in_short": "as §1"}, "LC-2-ad": {"test_system": "LC-2-ad", "in_short": "as §1"}, "NCI-H2347": {"test_system": "NCI-H2347", "in_short": "as §1"}}}
{"smiles": "CN1CCN(CCOc2cc(OC3CCOCC3)c3c(Nc4c(Cl)ccc5c4OCO5)ncnc3c2)CC1", "note": "[Saracatinib] + CS(=O)(=O)N1CCN(Cc2cc3nc(-c4cccc5[nH]ncc45)nc(N4CCOCC4)c3s2)CC1 [Pictilisib] (partner 1 µM)", "values": [{"measurement": "relative viability", "setting": "UMC-11; first compound 0.02 µM", "value": 0.691}, {"measurement": "relative viability", "setting": "UMC-11; first compound 0.6325 µM", "value": 0.836}, {"measurement": "relative viability", "setting": "UMC-11; first compound 2 µM", "value": 0.679}, {"measurement": "relative viability", "setting": "SW 1573; first compound 0.02 µM", "value": 0.47}, {"measurement": "relative viability", "setting": "SW 1573; first compound 0.2 µM", "value": 0.451}, {"measurement": "relative viability", "setting": "SW 1573; first compound 0.6325 µM", "value": 0.456}, {"measurement": "relative viability", "setting": "SW 1573; first compound 2 µM", "value": 0.295}, {"measurement": "relative viability", "setting": "NCI-H2009; first compound 0.02 µM", "value": 0.759}, {"measurement": "relative viability", "setting": "NCI-H2009; first compound 0.2 µM", "value": 0.465}, {"measurement": "relative viability", "setting": "NCI-H2009; first compound 0.6325 µM", "value": 0.644}, {"measurement": "relative viability", "setting": "NCI-H2009; first compound 2 µM", "value": 0.4}, {"measurement": "relative viability", "setting": "A-427; first compound 0.02 µM", "value": 0.652}, {"measurement": "relative viability", "setting": "A-427; first compound 0.2 µM", "value": 0.571}, {"measurement": "relative viability", "setting": "A-427; first compound 0.6325 µM", "value": 0.767}, {"measurement": "relative viability", "setting": "A-427; first compound 2 µM", "value": 0.616}, {"measurement": "relative viability", "setting": "NCI-H1793; first compound 0.02 µM", "value": 0.345}, {"measurement": "relative viability", "setting": "NCI-H1793; first compound 0.2 µM", "value": 0.213}, {"measurement": "relative viability", "setting": "NCI-H1793; first compound 0.6325 µM", "value": 0.41}, {"measurement": "relative viability", "setting": "NCI-H1793; first compound 2 µM", "value": 0.408}, {"measurement": "relative viability", "setting": "NCI-H1944; first compound 0.02 µM", "value": 0.335}, {"measurement": "relative viability", "setting": "NCI-H1944; first compound 0.6325 µM", "value": 0.288}, {"measurement": "relative viability", "setting": "NCI-H1944; first compound 2 µM", "value": 0.278}, {"measurement": "relative viability", "setting": "NCI-H1915; first compound 0.02 µM", "value": 0.952}, {"measurement": "relative viability", "setting": "NCI-H1915; first compound 0.2 µM", "value": 0.79}, {"measurement": "relative viability", "setting": "NCI-H1915; first compound 0.6325 µM", "value": 0.928}, {"measurement": "relative viability", "setting": "NCI-H1915; first compound 2 µM", "value": 0.767}, {"measurement": "relative viability", "setting": "EPLC-272H; first compound 0.02 µM", "value": 0.337}, {"measurement": "relative viability", "setting": "EPLC-272H; first compound 0.2 µM", "value": 0.298}, {"measurement": "relative viability", "setting": "EPLC-272H; first compound 0.6325 µM", "value": 0.388}, {"measurement": "relative viability", "setting": "EPLC-272H; first compound 2 µM", "value": 0.232}, {"measurement": "relative viability", "setting": "NCI-H358; first compound 0.02 µM", "value": 0.348}, {"measurement": "relative viability", "setting": "NCI-H358; first compound 0.2 µM", "value": 0.226}, {"measurement": "relative viability", "setting": "NCI-H358; first compound 0.6325 µM", "value": 0.284}, {"measurement": "relative viability", "setting": "NCI-H358; first compound 2 µM", "value": 0.257}, {"measurement": "relative viability", "setting": "ABC-1; first compound 0.02 µM", "value": 0.695}, {"measurement": "relative viability", "setting": "ABC-1; first compound 0.2 µM", "value": 0.938}, {"measurement": "relative viability", "setting": "ABC-1; first compound 0.6325 µM", "value": 0.85}, {"measurement": "relative viability", "setting": "ABC-1; first compound 2 µM", "value": 0.822}, {"measurement": "relative viability", "setting": "NCI-H2023; first compound 0.02 µM", "value": 0.267}, {"measurement": "relative viability", "setting": "NCI-H2023; first compound 0.2 µM", "value": 0.317}, {"measurement": "relative viability", "setting": "NCI-H2023; first compound 0.6325 µM", "value": 0.242}, {"measurement": "relative viability", "setting": "NCI-H2023; first compound 2 µM", "value": 0.197}, {"measurement": "relative viability", "setting": "HCC-15; first compound 0.02 µM", "value": 0.797}, {"measurement": "relative viability", "setting": "HCC-15; first compound 0.2 µM", "value": 0.585}, {"measurement": "relative viability", "setting": "HCC-15; first compound 0.6325 µM", "value": 0.684}, {"measurement": "relative viability", "setting": "HCC-15; first compound 2 µM", "value": 0.539}, {"measurement": "relative viability", "setting": "RERF-LC-KJ; first compound 0.02 µM", "value": 0.503}, {"measurement": "relative viability", "setting": "RERF-LC-KJ; first compound 0.2 µM", "value": 0.521}, {"measurement": "relative viability", "setting": "RERF-LC-KJ; first compound 0.6325 µM", "value": 0.604}, {"measurement": "relative viability", "setting": "RERF-LC-KJ; first compound 2 µM", "value": 0.362}, {"measurement": "relative viability", "setting": "NCI-H322M; first compound 0.02 µM", "value": 0.549}, {"measurement": "relative viability", "setting": "NCI-H322M; first compound 0.2 µM", "value": 0.474}, {"measurement": "relative viability", "setting": "NCI-H322M; first compound 0.6325 µM", "value": 0.496}, {"measurement": "relative viability", "setting": "NCI-H322M; first compound 2 µM", "value": 0.296}, {"measurement": "relative viability", "setting": "NCI-H838; first compound 0.02 µM", "value": 0.351}, {"measurement": "relative viability", "setting": "NCI-H838; first compound 0.2 µM", "value": 0.447}, {"measurement": "relative viability", "setting": "NCI-H838; first compound 0.6325 µM", "value": 0.344}, {"measurement": "relative viability", "setting": "NCI-H838; first compound 2 µM", "value": 0.326}, {"measurement": "relative viability", "setting": "NCI-H441; first compound 0.02 µM", "value": 0.461}, {"measurement": "relative viability", "setting": "NCI-H441; first compound 0.2 µM", "value": 0.406}, {"measurement": "relative viability", "setting": "NCI-H441; first compound 0.6325 µM", "value": 0.501}, {"measurement": "relative viability", "setting": "NCI-H441; first compound 2 µM", "value": 0.329}, {"measurement": "relative viability", "setting": "NCI-H1734; first compound 0.02 µM", "value": 0.475}, {"measurement": "relative viability", "setting": "NCI-H1734; first compound 0.6325 µM", "value": 0.435}, {"measurement": "relative viability", "setting": "NCI-H1734; first compound 2 µM", "value": 0.387}, {"measurement": "relative viability", "setting": "NCI-H647; first compound 0.02 µM", "value": 0.386}, {"measurement": "relative viability", "setting": "NCI-H647; first compound 0.2 µM", "value": 0.387}, {"measurement": "relative viability", "setting": "NCI-H647; first compound 0.6325 µM", "value": 0.425}, {"measurement": "relative viability", "setting": "NCI-H647; first compound 2 µM", "value": 0.216}, {"measurement": "relative viability", "setting": "LK-2; first compound 0.02 µM", "value": 0.563}, {"measurement": "relative viability", "setting": "LK-2; first compound 0.2 µM", "value": 0.316}, {"measurement": "relative viability", "setting": "LK-2; first compound 0.6325 µM", "value": 0.413}, {"measurement": "relative viability", "setting": "LK-2; first compound 2 µM", "value": 0.302}, {"measurement": "relative viability", "setting": "LC-2-ad; first compound 0.02 µM", "value": 0.578}, {"measurement": "relative viability", "setting": "LC-2-ad; first compound 0.6325 µM", "value": 0.443}, {"measurement": "relative viability", "setting": "LC-2-ad; first compound 2 µM", "value": 0.362}, {"measurement": "relative viability", "setting": "NCI-H2347; first compound 0.02 µM", "value": 0.654}, {"measurement": "relative viability", "setting": "NCI-H2347; first compound 0.2 µM", "value": 0.6}, {"measurement": "relative viability", "setting": "NCI-H2347; first compound 0.6325 µM", "value": 0.772}, {"measurement": "relative viability", "setting": "NCI-H2347; first compound 2 µM", "value": 0.527}]}
